The kinase profiling compilation of Christmann-Franck et al. (2016)
One block for each molecule: values may come before it.

How the values were obtained:
Assay in all cases: KINOMEscan competition binding
Conditions in all cases: compound 10.0 µM
PDGFRA (human) = PDGFRA (human) (UniProt P16234)
STK3 (human) = STK3 (human) (UniProt Q13188)
PLK3 (human) = PLK3 (human) (UniProt Q9H4B4)
CAMK2D (human) = CAMK2D (human) (UniProt Q13557)
CAMK2B (human) = CAMK2B (human) (UniProt Q13554)
MYO3A (human) = MYO3A (human) (UniProt Q8NEV4)
PAK7 (human) = PAK7 (human) (UniProt Q9P286)
MYLK2 (human) = MYLK2 (human) (UniProt Q9H1R3)
PLK1 (human) = PLK1 (human) (UniProt P53350)
Chain of PLK1 (human) (P53350 whole entry, looked up): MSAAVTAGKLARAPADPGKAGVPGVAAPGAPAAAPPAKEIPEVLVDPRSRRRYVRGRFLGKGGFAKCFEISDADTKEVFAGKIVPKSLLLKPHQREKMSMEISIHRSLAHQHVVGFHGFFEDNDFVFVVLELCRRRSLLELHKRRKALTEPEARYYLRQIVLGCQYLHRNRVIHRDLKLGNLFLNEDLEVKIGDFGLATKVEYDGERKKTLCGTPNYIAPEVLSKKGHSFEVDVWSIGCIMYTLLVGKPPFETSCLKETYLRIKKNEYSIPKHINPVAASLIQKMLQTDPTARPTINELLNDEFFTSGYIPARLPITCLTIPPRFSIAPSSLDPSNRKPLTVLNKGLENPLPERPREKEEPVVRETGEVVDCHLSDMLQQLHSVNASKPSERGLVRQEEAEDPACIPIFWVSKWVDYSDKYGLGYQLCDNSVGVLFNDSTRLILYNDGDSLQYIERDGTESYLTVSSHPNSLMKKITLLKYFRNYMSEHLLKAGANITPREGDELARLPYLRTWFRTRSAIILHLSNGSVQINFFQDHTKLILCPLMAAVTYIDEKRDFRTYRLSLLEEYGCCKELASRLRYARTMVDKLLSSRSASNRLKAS

[1] = target: TYK2 JH1 catalytic (human) (UniProt P29597)
IKBKE (human) = IKBKE (human) (UniProt Q14164)
SGK110 (human) = SGK110 (human) (UniProt P0C264)
SLK (human) = SLK (human) (UniProt Q9H2G2)
RPS6KA6 KD1 (human) = RPS6KA6 KD1 (human) (UniProt Q9UK32)
Chain of RPS6KA6 KD1 (human) (Q9UK32 whole entry, looked up): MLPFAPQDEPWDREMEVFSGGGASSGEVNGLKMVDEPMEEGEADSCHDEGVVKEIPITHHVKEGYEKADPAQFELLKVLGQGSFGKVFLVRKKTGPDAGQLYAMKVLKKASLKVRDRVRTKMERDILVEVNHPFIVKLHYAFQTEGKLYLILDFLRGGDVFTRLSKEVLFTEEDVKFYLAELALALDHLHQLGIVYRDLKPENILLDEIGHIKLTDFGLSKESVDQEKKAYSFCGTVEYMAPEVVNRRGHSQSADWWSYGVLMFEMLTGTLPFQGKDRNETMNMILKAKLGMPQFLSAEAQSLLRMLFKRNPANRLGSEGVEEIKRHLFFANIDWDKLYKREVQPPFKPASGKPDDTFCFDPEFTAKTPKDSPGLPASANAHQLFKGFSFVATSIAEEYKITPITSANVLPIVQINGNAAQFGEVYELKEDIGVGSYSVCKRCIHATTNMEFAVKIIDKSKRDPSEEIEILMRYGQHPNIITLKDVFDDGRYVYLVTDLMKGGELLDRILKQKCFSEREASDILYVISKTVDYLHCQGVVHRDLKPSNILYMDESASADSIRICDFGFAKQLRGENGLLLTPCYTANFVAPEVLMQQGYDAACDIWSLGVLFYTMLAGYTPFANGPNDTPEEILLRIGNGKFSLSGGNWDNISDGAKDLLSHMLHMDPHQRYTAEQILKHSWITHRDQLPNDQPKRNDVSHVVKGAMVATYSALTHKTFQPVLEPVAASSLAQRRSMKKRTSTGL

STK35 (human) = STK35 (human) (UniProt Q8TDR2)
MAP4K3 (human) = MAP4K3 (human) (UniProt Q8IVH8)
Chain of MAP4K3 (human) (Q8IVH8 whole entry, looked up): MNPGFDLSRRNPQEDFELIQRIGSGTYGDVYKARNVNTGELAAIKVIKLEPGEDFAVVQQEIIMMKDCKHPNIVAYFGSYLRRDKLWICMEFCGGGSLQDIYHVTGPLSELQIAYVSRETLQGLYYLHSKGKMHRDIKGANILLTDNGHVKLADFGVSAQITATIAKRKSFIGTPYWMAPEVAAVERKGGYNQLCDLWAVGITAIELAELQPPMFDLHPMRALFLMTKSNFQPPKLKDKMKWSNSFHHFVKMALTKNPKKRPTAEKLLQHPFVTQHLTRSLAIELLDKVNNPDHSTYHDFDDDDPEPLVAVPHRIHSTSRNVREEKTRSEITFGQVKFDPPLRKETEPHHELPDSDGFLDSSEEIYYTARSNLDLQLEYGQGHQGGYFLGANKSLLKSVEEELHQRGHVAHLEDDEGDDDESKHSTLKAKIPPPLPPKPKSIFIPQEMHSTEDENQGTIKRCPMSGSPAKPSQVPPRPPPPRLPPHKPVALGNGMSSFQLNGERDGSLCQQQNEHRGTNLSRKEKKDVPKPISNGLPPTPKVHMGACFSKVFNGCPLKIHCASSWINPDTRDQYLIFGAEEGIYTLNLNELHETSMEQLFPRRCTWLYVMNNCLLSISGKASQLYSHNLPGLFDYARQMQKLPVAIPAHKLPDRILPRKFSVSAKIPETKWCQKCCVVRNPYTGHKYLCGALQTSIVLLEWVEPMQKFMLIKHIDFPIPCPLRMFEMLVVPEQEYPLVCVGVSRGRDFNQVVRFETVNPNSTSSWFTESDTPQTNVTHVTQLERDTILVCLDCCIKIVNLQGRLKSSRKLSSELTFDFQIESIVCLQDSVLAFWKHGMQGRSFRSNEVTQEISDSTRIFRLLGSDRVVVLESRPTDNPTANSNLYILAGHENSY

ACVR1B (human) = ACVR1B (human) (UniProt P36896)
Chain of ACVR1B (human) (P36896 whole entry, looked up): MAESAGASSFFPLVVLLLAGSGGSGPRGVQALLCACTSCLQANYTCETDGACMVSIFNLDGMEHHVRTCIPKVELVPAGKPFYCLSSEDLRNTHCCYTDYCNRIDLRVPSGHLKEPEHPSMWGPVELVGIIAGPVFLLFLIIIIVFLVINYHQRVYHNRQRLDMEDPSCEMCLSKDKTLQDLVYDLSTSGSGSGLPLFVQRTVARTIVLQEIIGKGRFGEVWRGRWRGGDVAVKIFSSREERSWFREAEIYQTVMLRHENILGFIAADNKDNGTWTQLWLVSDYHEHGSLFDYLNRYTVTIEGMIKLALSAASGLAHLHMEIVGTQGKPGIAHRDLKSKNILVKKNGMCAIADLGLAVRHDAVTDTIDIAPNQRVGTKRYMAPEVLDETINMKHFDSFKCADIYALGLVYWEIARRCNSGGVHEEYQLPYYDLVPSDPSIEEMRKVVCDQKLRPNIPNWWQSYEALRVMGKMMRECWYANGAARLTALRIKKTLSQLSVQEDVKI

ULK1 (human) = ULK1 (human) (UniProt O75385)
CSF1R (human) = CSF1R (human) (UniProt P07333)
MAPK4 (human) = MAPK4 (human) (UniProt P31152)
CDK18 (human) = CDK18 (human) (UniProt Q07002)
AKT2 (human) = AKT2 (human) (UniProt P31751)
STK38L (human) = STK38L (human) (UniProt Q9Y2H1)
MAP3K12 (human) = MAP3K12 (human) (UniProt Q12852)
[2] = system: ABL1 (human), P00519 [E255K]
[3] = system: ABL1 (human), P00519 [M351T]
INSR (human) = INSR (human) (UniProt P06213)
FGFR4 (human) = FGFR4 (human) (UniProt P22455)
CDC42BPA (human) = CDC42BPA (human) (UniProt Q5VT25)
MARK1 (human) = MARK1 (human) (UniProt Q9P0L2)
PIK3CB (human) = PIK3CB (human) (UniProt P42338)
CDC42BPG (human) = CDC42BPG (human) (UniProt Q6DT37)
TIE1 (human) = TIE1 (human) (UniProt P35590)
MAPK1 (human) = MAPK1 (human) (UniProt P28482)
EPHB2 (human) = EPHB2 (human) (UniProt P29323)
PRKG1 (human) = PRKG1 (human) (UniProt Q13976)
SRC (human) = SRC (human) (UniProt P12931)
PRKX (human) = PRKX (human) (UniProt P51817)
FER (human) = FER (human) (UniProt P16591)
STK36 (human) = STK36 (human) (UniProt Q9NRP7)
RPS6KA3 KD1 (human) = RPS6KA3 KD1 (human) (UniProt P51812)

Chain of PDGFRA (human) (P16234 whole entry, looked up): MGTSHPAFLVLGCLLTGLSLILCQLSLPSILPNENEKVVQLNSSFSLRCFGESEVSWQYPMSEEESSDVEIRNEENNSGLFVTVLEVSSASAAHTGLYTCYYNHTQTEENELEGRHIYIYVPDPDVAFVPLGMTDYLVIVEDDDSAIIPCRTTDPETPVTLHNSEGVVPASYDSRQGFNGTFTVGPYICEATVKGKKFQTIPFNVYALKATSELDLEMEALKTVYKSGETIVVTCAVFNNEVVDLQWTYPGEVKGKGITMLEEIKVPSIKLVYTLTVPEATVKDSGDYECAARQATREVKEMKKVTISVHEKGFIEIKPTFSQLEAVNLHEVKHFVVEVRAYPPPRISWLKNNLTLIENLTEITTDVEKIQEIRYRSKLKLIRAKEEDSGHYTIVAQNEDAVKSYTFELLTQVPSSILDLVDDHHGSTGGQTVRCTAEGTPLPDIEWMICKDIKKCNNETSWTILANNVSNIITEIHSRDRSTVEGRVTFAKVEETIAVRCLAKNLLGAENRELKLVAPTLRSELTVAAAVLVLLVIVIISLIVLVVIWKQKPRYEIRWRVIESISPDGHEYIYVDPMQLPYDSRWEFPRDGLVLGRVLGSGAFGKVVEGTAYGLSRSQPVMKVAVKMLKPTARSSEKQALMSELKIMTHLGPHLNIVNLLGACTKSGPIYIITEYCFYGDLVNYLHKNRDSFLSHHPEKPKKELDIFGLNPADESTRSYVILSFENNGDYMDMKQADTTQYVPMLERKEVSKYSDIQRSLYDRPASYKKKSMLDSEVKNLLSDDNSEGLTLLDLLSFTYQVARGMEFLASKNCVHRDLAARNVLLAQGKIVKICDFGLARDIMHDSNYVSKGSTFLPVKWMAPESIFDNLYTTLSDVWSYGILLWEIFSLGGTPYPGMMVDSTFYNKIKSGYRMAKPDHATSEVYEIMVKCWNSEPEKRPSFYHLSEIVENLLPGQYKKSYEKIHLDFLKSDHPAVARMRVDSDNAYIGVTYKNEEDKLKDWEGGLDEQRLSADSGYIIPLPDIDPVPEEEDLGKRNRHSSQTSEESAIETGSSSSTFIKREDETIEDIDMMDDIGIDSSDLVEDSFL
Chain of STK3 (human) (Q13188 whole entry, looked up): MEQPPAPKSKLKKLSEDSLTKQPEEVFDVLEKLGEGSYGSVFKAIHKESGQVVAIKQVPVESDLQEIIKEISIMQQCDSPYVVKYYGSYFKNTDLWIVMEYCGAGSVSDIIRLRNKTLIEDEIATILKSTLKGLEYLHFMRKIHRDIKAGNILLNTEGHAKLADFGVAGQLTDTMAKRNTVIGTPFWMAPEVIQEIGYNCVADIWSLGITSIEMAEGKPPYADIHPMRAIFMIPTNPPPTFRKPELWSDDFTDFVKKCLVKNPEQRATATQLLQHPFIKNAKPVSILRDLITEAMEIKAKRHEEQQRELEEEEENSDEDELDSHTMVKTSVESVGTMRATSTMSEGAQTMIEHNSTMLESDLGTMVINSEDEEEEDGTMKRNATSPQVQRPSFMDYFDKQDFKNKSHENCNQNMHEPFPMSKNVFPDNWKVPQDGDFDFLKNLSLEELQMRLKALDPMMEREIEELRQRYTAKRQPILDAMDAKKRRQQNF
Chain of CAMK2B (human) (Q13554 whole entry, looked up): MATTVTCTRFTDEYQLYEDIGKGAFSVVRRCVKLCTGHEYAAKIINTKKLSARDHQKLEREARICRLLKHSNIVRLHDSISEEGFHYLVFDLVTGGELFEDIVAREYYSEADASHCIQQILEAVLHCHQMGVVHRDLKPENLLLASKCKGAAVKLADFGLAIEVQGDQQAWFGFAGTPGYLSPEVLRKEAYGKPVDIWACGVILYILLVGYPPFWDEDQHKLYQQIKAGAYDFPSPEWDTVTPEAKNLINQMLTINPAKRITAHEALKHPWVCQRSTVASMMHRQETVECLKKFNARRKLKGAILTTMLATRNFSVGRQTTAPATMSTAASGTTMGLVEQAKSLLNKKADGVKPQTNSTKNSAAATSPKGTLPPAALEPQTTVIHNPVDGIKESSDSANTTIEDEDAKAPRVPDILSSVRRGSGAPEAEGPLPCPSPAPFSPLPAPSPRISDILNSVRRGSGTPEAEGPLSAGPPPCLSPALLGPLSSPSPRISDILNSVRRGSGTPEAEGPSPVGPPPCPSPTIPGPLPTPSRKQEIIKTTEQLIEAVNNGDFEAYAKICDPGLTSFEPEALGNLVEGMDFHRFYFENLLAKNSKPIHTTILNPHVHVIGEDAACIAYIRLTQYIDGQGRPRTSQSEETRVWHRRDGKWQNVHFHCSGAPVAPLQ

- kinase still bound, per cent of control (SGK110 (human)): 30%
- kinase still bound, per cent of control (PLK3 (human)): 4.7%
- kinase still bound, per cent of control (PLK1 (human)): 0.65%
- kinase still bound, per cent of control [1]: 19%
- kinase still bound, per cent of control (SLK (human)): 3.4%
- kinase still bound, per cent of control (MYLK2 (human)): 15%
- kinase still bound, per cent of control (RPS6KA6 KD1 (human)): 30%
Structure (SMILES): CN1C(=O)[C@H]2CCC[C@H]2N(C2CCCC2)c2nc(Nc3ccc(C(N)=O)cc3)ncc21

- kinase still bound, per cent of control (PDGFRA (human)): 91%
- kinase still bound, per cent of control (CSF1R (human)): 75%
- kinase still bound, per cent of control (SGK110 (human)): 97%
- kinase still bound, per cent of control (MAPK4 (human)): 99%
- kinase still bound, per cent of control (CDK18 (human)): 86%
- kinase still bound, per cent of control (AKT2 (human)): 100%
- kinase still bound, per cent of control (STK38L (human)): 100%
- kinase still bound, per cent of control (MAP3K12 (human)): 100%
- kinase still bound, per cent of control [2]: 19%
- kinase still bound, per cent of control (PLK3 (human)): 83%
- kinase still bound, per cent of control (ULK1 (human)): 100%
- kinase still bound, per cent of control [3]: 15%
- kinase still bound, per cent of control (INSR (human)): 69%
- kinase still bound, per cent of control (CAMK2D (human)): 92%
- kinase still bound, per cent of control (CAMK2B (human)): 98%
- kinase still bound, per cent of control (FGFR4 (human)): 100%
- kinase still bound, per cent of control (CDC42BPA (human)): 100%
- kinase still bound, per cent of control (PLK1 (human)): 99%
- kinase still bound, per cent of control (MARK1 (human)): 100%
- kinase still bound, per cent of control (STK35 (human)): 100%
- kinase still bound, per cent of control (PIK3CB (human)): 88%
- kinase still bound, per cent of control [1]: 66%
- kinase still bound, per cent of control (MYO3A (human)): 80%
- kinase still bound, per cent of control (PAK7 (human)): 78%
- kinase still bound, per cent of control (CDC42BPG (human)): 100%
- kinase still bound, per cent of control (SLK (human)): 100%
- kinase still bound, per cent of control (TIE1 (human)): 24%
- kinase still bound, per cent of control (MAPK1 (human)): 94%
- kinase still bound, per cent of control (MAP4K3 (human)): 100%
- kinase still bound, per cent of control (EPHB2 (human)): 82%
- kinase still bound, per cent of control (PRKG1 (human)): 100%
- kinase still bound, per cent of control (SRC (human)): 48%
- kinase still bound, per cent of control (PRKX (human)): 100%
- kinase still bound, per cent of control (MYLK2 (human)): 69%
- kinase still bound, per cent of control (IKBKE (human)): 97%
- kinase still bound, per cent of control (FER (human)): 100%
- kinase still bound, per cent of control (STK3 (human)): 100%
- kinase still bound, per cent of control (ACVR1B (human)): 100%
- kinase still bound, per cent of control (RPS6KA6 KD1 (human)): 93%
- kinase still bound, per cent of control (STK36 (human)): 64%
- kinase still bound, per cent of control (RPS6KA3 KD1 (human)): 72%
Structure (SMILES): COc1cc(N2CCN(C)CC2)ccc1Nc1ncc2c(n1)Nc1ccccc1NC2=O

- kinase still bound, per cent of control (PDGFRA (human)): 100%
- kinase still bound, per cent of control (CSF1R (human)): 27%
- kinase still bound, per cent of control (SGK110 (human)): 52%
- kinase still bound, per cent of control (MAPK4 (human)): 100%
- kinase still bound, per cent of control (CDK18 (human)): 100%
- kinase still bound, per cent of control (AKT2 (human)): 100%
- kinase still bound, per cent of control (STK38L (human)): 100%
- kinase still bound, per cent of control (MAP3K12 (human)): 100%
- kinase still bound, per cent of control [2]: 100%
- kinase still bound, per cent of control (PLK3 (human)): 100%
- kinase still bound, per cent of control (ULK1 (human)): 100%
- kinase still bound, per cent of control [3]: 78%
- kinase still bound, per cent of control (INSR (human)): 52%
- kinase still bound, per cent of control (CAMK2D (human)): 99%
- kinase still bound, per cent of control (CAMK2B (human)): 92%
- kinase still bound, per cent of control (FGFR4 (human)): 97%
- kinase still bound, per cent of control (CDC42BPA (human)): 100%
- kinase still bound, per cent of control (PLK1 (human)): 100%
- kinase still bound, per cent of control (MARK1 (human)): 86%
- kinase still bound, per cent of control (STK35 (human)): 100%
- kinase still bound, per cent of control (PIK3CB (human)): 83%
- kinase still bound, per cent of control [1]: 94%
- kinase still bound, per cent of control (MYO3A (human)): 74%
- kinase still bound, per cent of control (PAK7 (human)): 79%
- kinase still bound, per cent of control (CDC42BPG (human)): 100%
- kinase still bound, per cent of control (SLK (human)): 100%
- kinase still bound, per cent of control (TIE1 (human)): 70%
- kinase still bound, per cent of control (MAPK1 (human)): 100%
- kinase still bound, per cent of control (MAP4K3 (human)): 100%
- kinase still bound, per cent of control (EPHB2 (human)): 68%
- kinase still bound, per cent of control (PRKG1 (human)): 100%
- kinase still bound, per cent of control (SRC (human)): 88%
- kinase still bound, per cent of control (PRKX (human)): 83%
- kinase still bound, per cent of control (MYLK2 (human)): 100%
- kinase still bound, per cent of control (IKBKE (human)): 100%
- kinase still bound, per cent of control (FER (human)): 80%
- kinase still bound, per cent of control (STK3 (human)): 98%
- kinase still bound, per cent of control (ACVR1B (human)): 100%
- kinase still bound, per cent of control (RPS6KA6 KD1 (human)): 100%
- kinase still bound, per cent of control (STK36 (human)): 88%
- kinase still bound, per cent of control (RPS6KA3 KD1 (human)): 92%
Structure (SMILES): COc1cc(N2CCN(C)CC2)ccc1Nc1ncc2c(n1)N(C)c1ccccc1N(C)C2=O

- kinase still bound, per cent of control (PDGFRA (human)): 26%
- kinase still bound, per cent of control (ULK1 (human)): 33%
- kinase still bound, per cent of control [3]: 26%
- kinase still bound, per cent of control (SLK (human)): 1.4%
- kinase still bound, per cent of control (STK36 (human)): 20%
Structure (SMILES): CS(=O)(=O)Nc1ccc(-c2ncc(/C=C3\SC(=N)NC3=O)s2)cc1

- kinase still bound, per cent of control (CAMK2D (human)): 34%
Structure (SMILES): N=C1NC(=O)/C(=C/c2ccc(-c3ccc(C(N)=O)cc3O)o2)S1

Continued, molecule first:

Structure (SMILES): CS(=O)(=O)Nc1ccc(-c2cc(/C=C3\SC(=N)NC3=O)c[nH]c2=O)cc1
- kinase still bound, per cent of control (PDGFRA (human)): 8%
- kinase still bound, per cent of control (STK3 (human)): 15%

Structure (SMILES): N=C1NC(=O)/C(=C/c2ccc(-c3cncc4ccccc34)o2)S1
- kinase still bound, per cent of control (PDGFRA (human)): 26%
- kinase still bound, per cent of control (PLK3 (human)): 16%
- kinase still bound, per cent of control (CAMK2D (human)): 7.6%
- kinase still bound, per cent of control (CAMK2B (human)): 17%
- kinase still bound, per cent of control (MYO3A (human)): 24%
- kinase still bound, per cent of control (PAK7 (human)): 13%
- kinase still bound, per cent of control (MYLK2 (human)): 12%
- kinase still bound, per cent of control (STK3 (human)): 25%

Structure (SMILES): Nc1cccc(-c2cc(/C=C3\SC(=O)NC3=O)c[nH]c2=O)c1
- kinase still bound, per cent of control (PLK1 (human)): 1.8%
- kinase still bound, per cent of control [1]: 14%
- kinase still bound, per cent of control (IKBKE (human)): 29%

Structure (SMILES): CS(=O)(=O)Nc1ccc(-c2cncc(/C=C3\SC(=N)NC3=O)c2)cc1
- kinase still bound, per cent of control (STK35 (human)): 30%
- kinase still bound, per cent of control (SLK (human)): 2.8%
- kinase still bound, per cent of control (MAP4K3 (human)): 32%
- kinase still bound, per cent of control (STK3 (human)): 17%
- kinase still bound, per cent of control (ACVR1B (human)): 29%

Structure (SMILES): N=C1NC(=O)/C(=C/c2c[nH]c(=O)c(-c3ccc(N4CCNCC4)nc3)c2)S1
- kinase still bound, per cent of control (ULK1 (human)): 33%

Structure (SMILES): N=C1NC(=O)/C(=C/c2ccc(-c3csc4ccccc34)o2)S1
- kinase still bound, per cent of control (MAPK1 (human)): 29%

Structure (SMILES): O=C1NC(=S)S/C1=C\c1ccc(-c2cncc3ccccc23)o1
- kinase still bound, per cent of control (STK38L (human)): 29%
- kinase still bound, per cent of control (CAMK2D (human)): 32%
- kinase still bound, per cent of control (CAMK2B (human)): 22%
- kinase still bound, per cent of control (MYO3A (human)): 19%
- kinase still bound, per cent of control (PAK7 (human)): 11%
- kinase still bound, per cent of control (ACVR1B (human)): 32%

Structure (SMILES): CSC1=NC(=O)/C(=C/c2c[nH]c(=O)c(-c3ccc(NS(C)(=O)=O)cc3)c2)S1
- kinase still bound, per cent of control (ULK1 (human)): 23%
- kinase still bound, per cent of control (PLK1 (human)): 17%
